Here are results for two compounds from US20260138969A1 (Korea Research Institute of Chemical Technology, priority 2023, published 2026).

Structures are written as SMILES. Marks after values point to notes of the source that are not given here.

The subject of data set [1] is α-Syn transgenic Parkinson's disease mouse model. The data set is described as follows: α-Syn transgenic Parkinson's disease mouse model: microglial reduction (Iba-1). As to conditions: 9 months of age; Memantine 10 mg/kg (G3), G4 2 mg/kg, G5 10 mg/kg, G7 2 mg/kg PO QD. In kind it is in vivo. As to the method:
The test drug was administered once daily (QD) via oral administration (PO) with a solution of 5 ml/kg for 5 months from 4 months to 9 months of age. Motor behavior tests (beam test) and neurological scores (modified Irwin test) were performed at 4 months (before administration), 7 months, and 9 months. After the final behavioral test, tissue samples were taken. Weight was measured on the same day once a week from 4 months of age until the end of the study.
At 9 months of age, the measurement period ended, the mice were anesthetized, and then the experiment was terminated by cardiac puncture according to IACUC guidelines. Mice were perfused transcardially with 0.9% saline for tissue staining, followed by 4% paraformaldehyde until the mice were fixed. The brains were isolated and immobilized by soaking in 4% paraformaldehyde at 4° C. for 24 hours, followed by 30% sucrose added to PBS containing 0.02% sodium azide and stored at 4° C. for 3 days. Brain samples embedded in OCT compounds were sectioned to a thickness of 20 μm using Leica CM1950 (Leica Microsystems, Germany). The sections were stored at 4° C. in a preservation solution until they were stained by antibodies. […]
To assess microgliosis of the cortex, Iba-1-stained brain tissue was imaged in experimental example 10.5 using an immunofluorescence microscope (Olympus, BZ21) in Olympus. Each marker was manually counted to quantify Iba1.

Data set [2] concerns Reserpine-induced fibromyalgia rat model. Briefly: Reserpine-induced fibromyalgia rat model: pain (von Frey test). In kind it is in vivo. As to the method:
Reserpine-induced fibromyalgia model generation and drug administration were carried out on 6-week-old male SD rats divided into 6 groups as shown in Table 15 below: control group (G1), reserpine+delivery (G2), reserpine+gabapentin 50 mg/kg (G3), reserpine+Example 2 3 mg/kg (G4), 10 mg/kg (G5), and 30 mg/kg (G6). To create a rat fibromyalgia model, reserpine (Sigma-aldrich, 1 mg/kg) dissolved in 0.5% acetic acid was administered subcutaneously once for 3 days from 3 days before the start of the experiment. Beginning on Day 1, the once-daily (QD) delivery body, gabapentin, and embodiment 2 were administered intraperitoneally (IP) or orally (PO) 2 hours before the experiment was performed.
The right hind foot tactile response test (von Frey test) was performed 5 times (before the fibromyalgia model, and on the 1st, 2nd, 4th and 6th days after the model was generated). Before all behavioral tests, rats were accustomed to the environment for 30 minutes, and all experimenters performing behavioral tests were made blind to drug administration information. Before model generation, baseline measurements were performed by performing the von Frey test on all rats. The rat was placed on a wired mesh and placed in a transparent plastic box (20×20×14 cm), and the foot withdrawal threshold was measured by applying a von Frey filament (ascending weight: 0.4, 0.6, 1.4, 2, 4, 6, 8, and 15 g, North Coast) to the middle of the right hind foot to assess foot allodynia.

Data set [3] relates to SOD1 G93A transgenic ALS mouse model. The data set is described as follows: SOD1 G93A transgenic ALS mouse model: neurological score. Particulars: 30 mg/kg PO QD; from the 19th week of age onwards; vs G2. In kind it is in vivo. As to the method:
(§1) The test drug was administered once daily (QD) via oral administration (PO) in a solution of 5 mL/kg from 8 weeks of age until death. Body weight was measured weekly, and disease score was measured daily from 8 weeks until the death of the animal. Motor behavior tests (grip strength) and neurological score tests (modified Irwin test) were performed at 9, 11, 13, 15, 17, 19, and 21 weeks, respectively. The survival of the mice was monitored daily.

The nature of data set [4]: TG synthesis inhibition in FFA-treated HepG2 cells. In kind it is cell-based, human. Particulars: human, HepG2 cells, read-out: Cell Viability (% of HepG2 control).
For data set [5], the system named is HepG2 cells. The data set is described as follows: TG synthesis inhibition in FFA-treated HepG2 cells. In kind it is cell-based, human.
The subject of data set [6] is SOD1 G93A transgenic ALS mouse model. Briefly: SOD1 G93A transgenic ALS mouse model: grip strength. In kind it is in vivo. As to conditions: 30 mg/kg PO QD from 8 weeks of age; vs G2. As to the method: as §1
Grip strength measurements were performed on mice aged 9, 11, 13, 15, 17, 19, and 21 weeks of age. The mouse was placed on a grip strength measurement device (San Diego Instruments, San Diego, USA) in such a way that the mouse grabbed the handle of a small mesh with its front paws. I put the mouse down on the platform and then slowly pulled the handle […] until the mouse released the handle. The device automatically measured the grip strength of the mouse in grams. Five scores per mouse were recorded consecutively in a one-day session.

For data set [7] the test system is unchanged. The data set is described as follows: SOD1 G93A transgenic ALS mouse model: survival. As to conditions: 30 mg/kg PO QD from 8 weeks of age until death; vs G2. In kind it is in vivo. As to the method: as §1
The survival of the mice was monitored daily. The survival age of mice was recorded and labeled as Kaplan Meier survival plots.

Data set [8] has the same test system. The data set is described as follows: SOD1 G93A transgenic ALS mouse model: disease symptom score (ALSTDI). In kind it is in vivo. Particulars: 30 mg/kg PO QD from 8 weeks of age; vs G2. As to the method:
as §1
From 8 weeks of age, the neurological scoring system developed by the ALS Therapy Development Institute (ALSTDI) method was used to evaluate disease symptoms in mice. Both hind legs were scored based on Table 14 below.

The test system of data set [9] is BV2 cells. The data set is described as follows: Anti-inflammatory efficacy: LPS-induced TNF-α secretion (ELISA). In kind it is cell-based. Particulars: 0.1, 0.3, 1 μM pretreatment 1 hour, LPS 100 μg/ml 24 hours; FIG. 2. As to the method: BV2 cells (2×10^4 cells per well) were incubated for 24 hours in a 96-well culture plate. Subsequently, the Example compounds were added in 0.1 μM, 0.3 μM, and 1 μM, respectively, for 1 hour, followed by the addition of LPS 100 μg/ml and incubated for 24 hours. After incubation, conditioned medium (CM) was harvested and centrifuged at 2000 rpm. After separating the supernatant of the solution after centrifugation, the TNF-α secreted from the cell culture medium was measured using the corresponding ELISA kit (LABISKOMA, Seoul, Korea).
(In general: ELISA stands for enzyme-linked immunosorbent assay.)

In the case of `Cc1cc(F)c(C(=O)Nc2cccc(-n3nnc4c3CCC4)n2)cc1-n1cnc(C2CC2)c1` [Example 2, 5-(4-cyclopropyl-1H-imidazole-1-yl)-N-(6-(5,6-dihydrocyclopenta[d][1,2,3]triazole-1 (4H)-yl)pyridine-2-yl)-2-fluoro-4-methylbenzamide], in data set [1], the “number of IBA-1 positive cells in the cerebral cortex” value is recorded as “significantly reduced”. In data set [2] (30 mg/kg PO QD), the “pain improvement efficacy (von Frey test)” value was “significant efficacy”. Moreover, the “sensitivity (foot withdrawal threshold, von Frey test)” value in data set [2] (gabapentin 50 mg/kg IP QD, Example 2 3, 10, 30 mg/kg PO QD, days 1, 2, 4, 6) is on record as “gradually improved over time”.
Turning to `Cc1cc(F)c(C(=O)Nc2cccc(-n3nnc4c3CCCC4)n2)cc1-n1cnc(C2CC2)c1` [Example 3, 5-(4-cyclopropyl-1H-imidazole-1-yl)-2-fluoro-4-methyl-N-(6-(4,5,6,7-tetrahydro-1H-benzo[d][1,2,3]triazole-1-yl)pyridine-2-yl)benzamide], the neurological scores entry in data set [3] was “significant decrease in neurological scores compared to G2”. In data set [4] (FFA 1 mM + 0.3 μM), the viability at 48 h, 0.3 μM is 99.1%. In data set [4] (FFA 1 mM + 1 μM), the viability at 48 h, 1 μM is 93.1%. In addition, the entries for the “TG Level (% of HepG2 control)” value in data set [5] (FFA 1 mM + 0.3 μM) and in [5] (FFA 1 mM + 1 μM) were 117.38 * % of HepG2 control and 106.59 * % of HepG2 control, respectively. In data set [6], the grip strength entry is “tended to increase grip strength compared to group G2, and the grip strength increased significantly from 19 weeks”. Also, the survival rate result in data set [7] is “tendency to improve survival rate, although it was not significant compared to group G2”. Also, in [8], the disease symptom score entry is “tended to have a lower disease symptom score compared to G2 during the observation period, and decreased significantly at 20 weeks”. The “TNF-α secretion induced by LPS” value in data set [9] is recorded as “reduced TNF-α secretion at all concentrations compared to Selonsertib”.

Usually viability stands for a read-out of living cells in per cent, often relative to untreated cells.
